Entries after “also recorded” stand apart in the source; their conditions may differ.
Assays:
Format in all cases: cell-based
[1] = tested on: transglutaminase-1; assay: Induction of differentiation marker transglutaminase-1 in human epidermal keratinocytes (real time RT-PCR); settings: NHEK, several concentrations
Description: (§1) Silica mud precipitate was obtained from a natural source (Blue Lagoon geothermal basin, Svartsengi, Iceland). Sodium metasilicate was obtained from Prof. Dr. G. Lehmann, Biochemistry, Regensburg University. As control a ceramide mix (10 μM) was used to induce the differentiation markers.
(§2) Long term cultured normal human epidermal keratinocytes, NHEK, prepared from neonatal foreskin are cultured in Keratinocyte SFM (Invitrogen™, Heidelberg, Germany) supplemented with bovine pituitary extract (Invitrogen, Heidelberg, Germany) and recombinant epidermal growth factor (Invitrogen, Heidelberg, Germany). Cells are propagated up to passage 2 or 3 at 37° C. and 5% CO2. For induction of differentiation NHEKs are seeded in 6-well plates and grown up to confluence and treated with several concentrations of the silica preparates.
(§3) Total RNA was isolated using RNeasy Total RNA Kits (Qiagen, Hilden, Germany). The RNA concentration was determined via photometric measurement at 260/280 (Biophotometer, Eppendorf AG, Hamburg, Germany). An aliquot of 10 ng RNA was used for cDNA synthesis. […]
(§4) PCR reactions were carried out on an opticon 1 (MJ Research, Waltham, Mass., USA) using SYBR Green® PCR Master Mix (Applied Biosystems, Darmstadt, Germany). Each sample was analyzed in double employing the universal protocol over 36 cycles. […]

[2] = tested on: Filaggrin; assay: Induction of differentiation marker filaggrin in human epidermal keratinocytes (real time RT-PCR); settings: NHEK, several concentrations
Description: as §1, §2, §3, §4

[3] = tested on: Involucrin; assay: Induction of differentiation marker involucrin in human epidermal keratinocytes (real time RT-PCR); settings: NHEK, several concentrations
Description: as §1, §2, §3, §4

[4] = tested on: collagen 1A1; assay: Collagen 1A1 gene expression in human dermal fibroblasts; settings: real time RT-PCR
From the text: Human dermal fibroblasts, HDF, prepared from neonatal foreskin and cultured for 4 days until they reached confluence as described in Example 3.

[5] = tested on: Loricrin; assay: Induction of differentiation marker loricrin in human epidermal keratinocytes (real time RT-PCR); settings: NHEK, several concentrations
Description: as §1, §2, §3, §4

SMILES: O=[Si]([O-])[O-].[Na+].[Na+] [sodium metasilicate]
- expression of transglutaminase-1 [1]: substantial up-regulation; also recorded: induced
- expression of filaggrin [2]: substantial up-regulation; also recorded: induced; also recorded: stronger than with silica mud
- expression of involucrin [3]: substantial up-regulation; also recorded: induced
- collagen 1A1 gene expression [4]: did not show any increase
- expression of loricrin [5]: induced

Source: US20090311348A1, “PHARMECEUTICAL AND COSMETIC USE OF SILICA” (priority 2006, published 2009)
